Experimental data: patent US20120016119A1, “NOVEL PYRROLO(2,3-d)PYRIMIDINE COMPOUND” (priority 2009, published 2012)

Legend:
human GPR119 = molecular target: T1, human GPR119 (Homo sapiens, UniProt Q8TDV5); test: GPR119 agonistic activity: cAMP production in human GPR119-expressed CHO cells (HTRF cAMP kit); type: cell-based; conditions: human GPR119-expressed CHO cells (L8-18), 37° C. for 30 minutes, 500 μM IBMX
T1 construct: expressed in transfected cells; host or cells: CHO cells (LM-3 mock cells carrying luciferase reporter pLG3-CRE6-CRE-VIP); resulting line L8-18
T1 sequence (Q8TDV5 1-335): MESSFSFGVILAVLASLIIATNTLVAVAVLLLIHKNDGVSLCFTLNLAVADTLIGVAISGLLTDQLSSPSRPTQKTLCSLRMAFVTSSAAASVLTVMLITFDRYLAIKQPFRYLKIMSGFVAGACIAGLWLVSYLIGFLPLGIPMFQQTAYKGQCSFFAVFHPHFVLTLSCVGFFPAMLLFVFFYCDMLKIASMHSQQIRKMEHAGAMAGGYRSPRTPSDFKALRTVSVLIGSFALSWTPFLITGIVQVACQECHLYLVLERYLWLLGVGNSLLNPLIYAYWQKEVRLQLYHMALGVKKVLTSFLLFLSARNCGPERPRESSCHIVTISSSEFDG
Method: The present experiment is directed to evaluate GPR119 agonistic activity (in vitro) of test compounds by adding the compounds to human GPR119-expressed CHO cells to determine cAMP production of the cells.
Human GPR119-expressed CHO cells (L8-18) were prepared by introducing an expression vector pMSF1-GPR119 (Geneticin-resistance) carrying human GPR119 genes into CHO cells (LM-3; Mock cells) wherein lusiferase expression vector pLG3-CRE6-CRE-VIP (Hygromycin B-resistance) were introduced according to the known method (The Journal of Biological Chemistry Vol. 274 (34), pp. 23940-23947).
Cryopreserved L8-18 cells were melted, and then suspended into 9-fold amounts of assay buffer and centrifuged (1000 rpm, 5 minutes) at room temperature. The supernatant was removed, and then the precipitated cells were resuspended into assay buffer (4 mL). Thereto was added assay buffer which contained IBMX (manufactured by Sigma, #17018-1G), and 7.5×10^4 cells/mL of cell suspension was prepared. The cell suspension was let stand at room temperature for 15 minutes, and then to each well of 96 half well white plate (manufactured by Corning Incorporated, #3693) were added the cell suspension (20 μL) and a solution of a test compound or AR231453 (5 μL; a total of 25 (final concentration: 1500 cells/well, 500 μM IBMX, 1% dimethylsulfoxide). The mixture was incubated at 37° C. for 30 minutes, and then to each well were added a 20-fold diluted solution (each 12.5 μL/well) of cAMP-d2 and Anti cAMP-Cryptate of HTRF cAMP kit (manufactured by Cisbio, #62AM4PEC). The mixture was stirred, and then was let stand for 1 hour under light shielding. A fluorescence intensity was measured by time-resolved fluorescence mode (Ex: 320 nm, Em: 665 nm, 620 nm) of Microplate Reader (ARVO or SpectraMax M5e). In ARVO, Ratios [Ratio=(665 nm/620 nm)×10^4)] of cAMP-d2 to Anti cAMP-Cryptate were calculated from the resulting fluorescence intensity, and cAMP concentrations of each well were calculated from cAMP standard curve prepared by the Ratios and GraphPad Prism. In SpectraMax M5e, cAMP concentrations of each well were calculated on the basis of a standard curve prepared by the resulting fluorescence intensity and Softmax Pro.
EC50 of test compounds were calculated by GraphPad Prism.

C57BL/6N male mice = test: Inhibitory effect on increased blood glucose after oral glucose load in fasted mice; type: in vivo; conditions: one hour before glucose load (3 g/kg, p.o.), C57BL/6N male mice fasted 21 hours
Method: C57BL/6N male mice was fasted for 21 hours, and then a stratified randomization allocation was carried out by EXSUS Ver7.6 NP (Arm Systex Co., Ltd.) based on body weights (n=8). Vehicle (solvent: 0.1% Tween 80/0.5% hydroxypropyl methylcellulose) (control group) or a suspended solution of a test compound in the vehicle (test compound group) was orally administered to the mice, and a glucose load (3 g/kg, p.o.) was carried out one hour after administration of a test compound. Blood samplings from the test mice were carried out at each time point of just before administration of drug (−60 min), immediately before glucose load (0 min), 30 minutes (30 min), 60 minutes (60 min) and 120 minutes (120 min) after glucose load. Blood glucose levels at each time point were measured by glucose CII-Test Wako (manufactured by Wako Pure Chemical Industries, Ltd.), AUC (0-120 min) was calculated in each administration group on the basis of the measured value, and evaluated by time-dependent variance analysis and Student's t-Test using EXSUS Ver7.6NP (Arm Systex Co., Ltd.).
An inhibitory effect on increased blood glucose of each test compound (A ratio value of AUC (0-120 min) of the test compound group in case that AUC (0-120 min) of the control group is 100) is shown in the following Table 36.

For `CN(C)C(=O)c1ccc(Nc2ncnc3c2c(F)cn3C2CCN(C(=O)OC(C)(C)C)CC2)c(F)c1` [Example Compound 1, tert-butyl 4-[4-(4-dimethylcarbamoyl-2-fluorophenylamino)-5-fluoropyrrolo[2,3-d]pyrimidin-7-yl]piperidine-1-carboxylate], the EC50 (human GPR119) was less than 1000 nM.

For `CC(C)OC(=O)N1CCC(n2cc(Cl)c3c(Nc4ncc(C(=O)N(C)C)cc4Cl)ncnc32)CC1` [Example Compound 2, isopropyl 4-[5-chloro-4-(3-chloro-5-dimethylcarbamoylpyridin-2-ylamino)pyrrolo[2,3-d]pyrimidin-7-yl]piperidine-1-carboxylate], the EC50 (human GPR119) was 1000 to 3000 nM.

In the case of `CC(C)(C)OC(=O)N1CCC(n2cc(F)c3c(Oc4ccc(S(C)(=O)=O)cc4F)ncnc32)CC1` [Example Compound 3, tert-butyl 4-[5-fluoro-4-(2-fluoro-4-mesylphenoxy)pyrrolo[2,3-d]pyrimidin-7-yl]piperidine-1-carboxylate], the EC50 (human GPR119) is reported as less than 1000 nM.

In the case of `CCc1cnc(N2CCC(n3cc(F)c4c(Nc5ccc(C(=O)N(C)C)cc5F)ncnc43)CC2)nc1` [Example Compound 6, 4-[7-[1-(5-ethylpyrimidin-2-yl)piperidin-4-yl]-5-fluoro-7H-pyrrolo[2,3-d]pyrimidin-4-ylamino]-3-fluoro-N,N-dimethylbenzamide], the “Inhibitory Effect on Increased Blood Glucose (ratio value of AUC (0-120 min) of test compound group, control group = 100)” value (C57BL/6N male mice; 10 mg/kg orally) is reported as 85.

`CCc1cnc(N2CCC(n3cc(F)c4c(Nc5ccc(C(=O)N(C)CCO)cc5F)ncnc43)CC2)nc1` [Example Compound 8, 4-[7-[1-(5-ethylpyrimidin-2-yl)piperidin-4-yl]-5-fluoro-7H-pyrrolo[2,3-d]pyrimidin-4-ylamino]-3-fluoro-N-(2-hydroxyethyl)-N-methylbenzamide] was tested, and the “Inhibitory Effect on Increased Blood Glucose (ratio value of AUC (0-120 min) of test compound group, control group = 100)” value (C57BL/6N male mice; 10 mg/kg orally) was 83.

With `CC(C)(C)OC(=O)N1CCC(n2cc(F)c3c(Nc4ccc(S(C)(=O)=O)cc4Cl)ncnc32)CC1` [Example Compound 13] the EC50 (human GPR119) was less than 1000 nM.

`CC(C)(C)OC(=O)N1CCC(n2cc(F)c3c(Nc4ccc(-n5cncn5)cc4F)ncnc32)CC1` [Example Compound 15] gave an EC50 (human GPR119) of less than 1000 nM.

`CN(C)C(=O)c1ccc(Nc2ncnc3c2c(F)cn3C2CCN(C(=O)OC(C)(C)C)CC2)c(Cl)c1` [Example Compound 17] gave an EC50 (human GPR119) of less than 1000 nM.

For `CC(C)c1noc(N2CCC(n3cc(F)c4c(Nc5ccc(C(=O)N(C)C)cc5Cl)ncnc43)CC2)n1` [Example Compound 21], the EC50 (human GPR119) was less than 1000 nM.

With `CCc1cnc(N2CCC(n3cc(F)c4c(Nc5ccc(C(=O)N(C)C)cc5Cl)ncnc43)CC2)nc1` [Example Compound 29] the EC50 (human GPR119) was less than 1000 nM and the “Inhibitory Effect on Increased Blood Glucose (ratio value of AUC (0-120 min) of test compound group, control group = 100)” value (C57BL/6N male mice; 10 mg/kg orally) was 88.

Compound `CN(C)C(=O)c1ccc(Nc2ncnc3c2c(F)cn3C2CCN(c3ncc(C(F)(F)F)cn3)CC2)c(F)c1` [Example Compound 54] has an EC50 (human GPR119) of less than 1000 nM.

`CC(C)Oc1cnc(N2CCC(n3cc(F)c4c(Nc5ccc(C(=O)N(C)C)cc5F)ncnc43)CC2)nc1` [Example Compound 56] was tested, and the EC50 (human GPR119) was less than 1000 nM.

In the case of `CCc1cnc(N2CCC(n3cc(F)c4c(Nc5ccc(C(=O)N6CC[C@@H](O)C6)cc5F)ncnc43)CC2)nc1` [Example Compound 61], the EC50 (human GPR119) is reported as less than 1000 nM and the “Inhibitory Effect on Increased Blood Glucose (ratio value of AUC (0-120 min) of test compound group, control group = 100)” value (C57BL/6N male mice; 10 mg/kg orally) is reported as 85.

`CCc1cnc(N2CCC(n3cc(F)c4c(Nc5ccc(C(=O)N6CC[C@H](O)C6)cc5F)ncnc43)CC2)nc1` [Example Compound 62] was tested, and the EC50 (human GPR119) was less than 1000 nM and the “Inhibitory Effect on Increased Blood Glucose (ratio value of AUC (0-120 min) of test compound group, control group = 100)” value (C57BL/6N male mice; 10 mg/kg orally) was 86.

For `CCc1cnc(N2CCC(n3cc(F)c4c(Nc5ccc(S(C)(=O)=O)cc5F)ncnc43)CC2)nc1` [Example Compound 77], the EC50 (human GPR119) was less than 1000 nM.

In the case of `CC(C)c1nc(N2CCC(n3cc(F)c4c(Nc5ccc(C(=O)N(C)CCO)cc5F)ncnc43)CC2)no1` [Example Compound 115], the “Inhibitory Effect on Increased Blood Glucose (ratio value of AUC (0-120 min) of test compound group, control group = 100)” value (C57BL/6N male mice; 3 mg/kg orally) is reported as 92.

In the case of `CCCc1cnc(N2CCC(n3cc(F)c4c(Nc5ccc(C(=O)N6CC[C@@H](O)C6)cc5F)ncnc43)CC2)nc1` [Example Compound 121], the “Inhibitory Effect on Increased Blood Glucose (ratio value of AUC (0-120 min) of test compound group, control group = 100)” value (C57BL/6N male mice; 3 mg/kg orally) is reported as 82.

`CC(C)c1cnc(N2CCC(n3cc(F)c4c(Nc5ccc(C(=O)N(C)CCO)cc5F)ncnc43)CC2)nc1` [Example Compound 124] was tested, and the “Inhibitory Effect on Increased Blood Glucose (ratio value of AUC (0-120 min) of test compound group, control group = 100)” value (C57BL/6N male mice; 3 mg/kg orally) was 86.

For `O=C(c1ccc(Nc2ncnc3c2c(F)cn3C2CCN(c3ncc(C4CC4)cn3)CC2)c(F)c1)N1CC[C@@H](O)C1` [Example Compound 128], the “Inhibitory Effect on Increased Blood Glucose (ratio value of AUC (0-120 min) of test compound group, control group = 100)” value (C57BL/6N male mice; 3 mg/kg orally) was 83.

With `CN(CCO)C(=O)c1ccc(Nc2ncnc3c2c(F)cn3C2CCN(c3ncc(C4CC4)cn3)CC2)c(F)c1` [Example Compound 129] the “Inhibitory Effect on Increased Blood Glucose (ratio value of AUC (0-120 min) of test compound group, control group = 100)” value (C57BL/6N male mice; 3 mg/kg orally) was 88.

For `CC(C)c1cnc(N2CCC(n3cc(F)c4c(Nc5ccc(C(=O)N6CCC[C@@H](O)C6)cc5F)ncnc43)CC2)nc1` [Example Compound 132], the “Inhibitory Effect on Increased Blood Glucose (ratio value of AUC (0-120 min) of test compound group, control group = 100)” value (C57BL/6N male mice; 3 mg/kg orally) was 90.

With `CN(CCO)C(=O)c1ccc(Nc2ncnc3c2c(F)cn3C2CCN(c3ncc(Cl)cn3)CC2)c(F)c1` [Example Compound 134] the “Inhibitory Effect on Increased Blood Glucose (ratio value of AUC (0-120 min) of test compound group, control group = 100)” value (C57BL/6N male mice; 3 mg/kg orally) was 82.

`CN(CCCO)C(=O)c1ccc(Nc2ncnc3c2c(F)cn3C2CCN(c3ncc(C4CC4)cn3)CC2)c(F)c1` [Example Compound 138] showed an EC50 (human GPR119) of less than 1000 nM.

In the case of `CC(C)Oc1cnc(N2CCC(n3cc(F)c4c(Nc5ccc(C(=O)N(C)CCCO)cc5F)ncnc43)CC2)nc1` [Example Compound 154], the “Inhibitory Effect on Increased Blood Glucose (ratio value of AUC (0-120 min) of test compound group, control group = 100)” value (C57BL/6N male mice; 3 mg/kg orally) is reported as 86.

In the case of `CC(C)c1noc(N2CCC(n3cc(F)c4c(Nc5ccc(C(=O)N6CCCC6)cc5F)ncnc43)CC2)n1` [Example Compound 161], the “Inhibitory Effect on Increased Blood Glucose (ratio value of AUC (0-120 min) of test compound group, control group = 100)” value (C57BL/6N male mice; 3 mg/kg orally) is reported as 87.

For `CC(C)OC(=O)N1CCC(n2cc(F)c3c(Nc4ccc(C(=O)N5CCCC5)cc4F)ncnc32)CC1` [Example Compound 163], the “Inhibitory Effect on Increased Blood Glucose (ratio value of AUC (0-120 min) of test compound group, control group = 100)” value (C57BL/6N male mice; 3 mg/kg orally) was 86.

`CCc1cnc(N2CCC(n3cc(F)c4c(Nc5cc(F)c(C(=O)N(C)CCO)cc5F)ncnc43)CC2)nc1` [Example Compound 164] gave an EC50 (human GPR119) of less than 1000 nM.

With `O=C(c1ccc(Nc2ncnc3c2c(F)cn3C2CCN(c3noc(C(F)(F)F)n3)CC2)c(F)c1)N1CC[C@@H](O)C1` [Example Compound 178] the “Inhibitory Effect on Increased Blood Glucose (ratio value of AUC (0-120 min) of test compound group, control group = 100)” value (C57BL/6N male mice; 1 mg/kg orally) was 88.

Work on `CN(CCCO)C(=O)c1ccc(Nc2ncnc3c2c(F)cn3C2CCN(c3noc(C(F)(F)F)n3)CC2)c(F)c1` [Example Compound 184] yielded an EC50 (human GPR119) of less than 1000 nM.

`CCc1cnc(N2CCC(n3cc(F)c4c(Nc5ccc(C(=O)N6CC[C@@H](O)C6)cc5Cl)ncnc43)CC2)nc1` [Example Compound 185] was tested, and the “Inhibitory Effect on Increased Blood Glucose (ratio value of AUC (0-120 min) of test compound group, control group = 100)” value (C57BL/6N male mice; 1 mg/kg orally) was 89.

Work on `CN(CCO)C(=O)c1ccc(Nc2ncnc3c2c(F)cn3C2CCN(c3ncc(OC(F)F)cn3)CC2)c(F)c1` [Example Compound 193] yielded an EC50 (human GPR119) of less than 1000 nM.
